Experimental findings from ChEMBL document CHEMBL3632490, “Cytotoxic Barrigenol-like Triterpenoids from an Extract of Cyrilla racemiflora Housed in a Repository” (J Nat Prod, 2015) are described below.

pIC50: −log10 of the molar value.

The subject of one experiment is HT-29. The experiment can be described thus: Cytotoxicity against human HT-29 cells assessed as inhibition of cell viability after 3 days by sulforhodamine B assay. Conditions: HT-29, 72 h. In kind it is functional, cell-based.
Experiment [1] is described as follows: Cytotoxicity against human CCD-112CoN cells assessed as inhibition of cell viability after 3 days by sulforhodamine B assay. The format is cell-based. Conditions: 72 h.

As to `CC1(C)C[C@H]2C3=CC[C@@H]4[C@@]5(C)C=CC(=O)C(C)(C)[C@@H]5CC[C@@]4(C)[C@]3(C)C[C@@H](O)[C@@]2(CO)[C@@H](O)[C@@H]1O`, the pIC50 with HT-29 was under 5.00.

For the molecule `C/C=C(/C)C(=O)O[C@@H]1[C@@H](O)[C@H](O[C@H]2CC(C)(C)C[C@H]3C4=CC[C@@H]5[C@@]6(C)C=C[C@H](O)C(C)(C)[C@@H]6CC[C@@]5(C)[C@]4(C)C[C@@H](O)[C@@]23CO)O[C@H](CO)[C@H]1OC(=O)/C(C)=C\C`, the pIC50 in the experiment with HT-29 is under 5.00.

As for `C/C=C(/C)C(=O)O[C@H]1[C@H](OC(C)=O)[C@]2(CO)[C@H](O)C[C@]3(C)C(=CC[C@@H]4[C@@]5(C)CC[C@H](O)C(C)(C)[C@@H]5CC[C@]43C)[C@@H]2CC1(C)C`, in the experiment on HT-29, the pIC50 is 5.11. For `C/C=C(/C)C(=O)O[C@H]1CC(C)(C)C[C@H]2C3=CC[C@@H]4[C@@]5(C)CC[C@H](O)C(C)(C)[C@@H]5CC[C@@]4(C)[C@]3(C)[C@@H](O)[C@@H](O)[C@@]12CO`, the pIC50 in the experiment with HT-29 is 5.06. The same measure, in the same setting: the result for `C/C=C(/C)C(=O)O[C@H]1[C@H](O)C(C)(C)C[C@H]2C3=CC[C@@H]4[C@@]5(C)CC[C@H](O)C(C)(C)[C@@H]5CC[C@@]4(C)[C@]3(C)[C@@H](O)[C@@H](O)[C@]21CO` reads under 5.00. Regarding `C/C=C(/C)C(=O)O[C@H]1[C@H](O)[C@]2(CO)[C@H](O)C[C@]3(C)C(=CC[C@@H]4[C@@]5(C)CC[C@H](O)C(C)(C)[C@@H]5CC[C@]43C)[C@@H]2CC1(C)C`, the pIC50 in the experiment on HT-29 is 5.77; in experiment [1] it was 5.23. As for `CC(=O)O[C@H]1C(=O)[C@@]2(C)[C@H]([C@H](OC(=O)c3ccccc3)[C@]3(O)C[C@H](OC(=O)[C@H](O)[C@@H](NC(=O)c4ccccc4)c4ccccc4)C(C)=C1C3(C)C)[C@]1(OC(C)=O)CO[C@@H]1C[C@@H]2O` [PACLITAXEL], in experiment [1], the pIC50 is 4.71.
